Measurements as given in publication PMC3365486 (Behavioural Pharmacology, 2012).
Where “and” joins values, the source holds several entries; their conditions need not be identical. Equal values may be shown once. Where a name gives a salt, the structure may show the parent alone. Marks after values point to notes of the source that are not given here.

Key:
[1] = biological target: T1, recombinant human D4 receptors (Homo sapiens, UniProt P21917); experiment: Inhibition of forskolin-stimulated cAMP accumulation in intact CHO cells; format: cell-based; settings: read-out: in vitro Functional Activity EC50, hD4, geometric mean (95%CI)
T1 sequence (P21917 1-419): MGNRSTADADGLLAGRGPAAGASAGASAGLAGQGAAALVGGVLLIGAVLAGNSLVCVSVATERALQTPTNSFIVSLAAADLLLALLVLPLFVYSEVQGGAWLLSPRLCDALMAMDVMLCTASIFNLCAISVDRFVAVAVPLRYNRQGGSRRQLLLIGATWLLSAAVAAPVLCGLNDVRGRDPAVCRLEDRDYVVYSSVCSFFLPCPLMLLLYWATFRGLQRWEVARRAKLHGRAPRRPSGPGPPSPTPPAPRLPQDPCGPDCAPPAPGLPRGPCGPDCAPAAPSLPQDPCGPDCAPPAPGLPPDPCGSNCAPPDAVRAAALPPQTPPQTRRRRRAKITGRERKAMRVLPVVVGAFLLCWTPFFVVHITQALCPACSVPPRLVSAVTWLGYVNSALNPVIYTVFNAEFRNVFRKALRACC

[2] = tested on: drug-naïve rats; experiment: Acquisition of IV self-administration under FR1 in drug-naïve rats; format: in vivo, rat; settings: for % Met, Both Criteria Met / % Met, criterion ≥ 15 Injections per Session / % Met, criterion ≥ 70% Active Lever Selection: FR1, 18 sessions, n=7
[3] = tested on: rats trained to self-administer cocaine; experiment: Fixed ratio; format: in vivo, rat; settings: for FR5 responding when substituted for cocaine, relative to saline: cocaine and 7-OH-DPAT 0.032–1.0, PF-592,379 0.01–1.0 mg/kg/inj i.v., n=6
[4] = tested on: rats trained to self-administer cocaine; experiment: Progressive ratio; format: in vivo, rat; settings: for Total Injections / Total Responses / Final Ratio Achieved: maximally effective dose (cocaine 1.0, 7-OH-DPAT 0.32, PF-592,379 0.1 mg/kg/inf), mean (SEM); for PR responding when substituted for cocaine, relative to saline: cocaine 0.032–1.0, 7-OH-DPAT and PF-592,379 0.1–1.0 mg/kg/inj
[5] = tested on: rats trained to discriminate 5.6 mg/kg cocaine from saline; settings: rat, in vivo; for maximum cocaine-appropriate responding: sc
[6] = tested on: rats; experiment: Locomotor activity observed at large doses; format: in vivo, rat; settings: PF-592,379 doses as large as 32.0 mg/kg
[7] = biological target: T1, recombinant human D4 receptors; experiment: In vitro competition binding, [3H]spiperone, CHO cell membranes; settings: read-out: in vitro Binding Affinity Ki, hD4, geometric mean (95%CI)
[8] = biological target: T2, recombinant human D3 receptors (Homo sapiens, UniProt P35462); experiment: Inhibition of forskolin-stimulated cAMP accumulation in intact CHO cells; format: cell-based
[9] = biological target: T2, recombinant human D3 receptors; settings: cAMP accumulation; ref Attkins et al., 2010; cited from earlier work
[10] = biological target: recombinant human D2 receptors (Homo sapiens, UniProt P14416); experiment: In vitro competition binding, [3H]U-86170, CHO cell membranes
[11] = biological target: recombinant human D1 receptors (Homo sapiens, UniProt P21728); experiment: In vitro competition binding, [3H]SCH23390, CHO cell membranes
[12] = biological target: recombinant human D5 receptors (Homo sapiens, UniProt P21918); experiment: as above
[13] = biological target: T2, recombinant human D3 receptors; experiment: In vitro competition binding, [3H]spiperone, CHO cell membranes; settings: no binding up to 10 µM
[14] = tested on: D3 or D2 receptor; settings: ref Collins et al., 2007; cited from earlier work
[15] = tested on: D3 receptor; settings: ref Millan et al., 2002; cited from earlier work
[16] = tested on: D2 receptor; settings: ref McCall et al., 2005; cited from earlier work
[17] = 0.32 mg/kg per injection IV, FR1

T2 sequence (P35462 whole entry): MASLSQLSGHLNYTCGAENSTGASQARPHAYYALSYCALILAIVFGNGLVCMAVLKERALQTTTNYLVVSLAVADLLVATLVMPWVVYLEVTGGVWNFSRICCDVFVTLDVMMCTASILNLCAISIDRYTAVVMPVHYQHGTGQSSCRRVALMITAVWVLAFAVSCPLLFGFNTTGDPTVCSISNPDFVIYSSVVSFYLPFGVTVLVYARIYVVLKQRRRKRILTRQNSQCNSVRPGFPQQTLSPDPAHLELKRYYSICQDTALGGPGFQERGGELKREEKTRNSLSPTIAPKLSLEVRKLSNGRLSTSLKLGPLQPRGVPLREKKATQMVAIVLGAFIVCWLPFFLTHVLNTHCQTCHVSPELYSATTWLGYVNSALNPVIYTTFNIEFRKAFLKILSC
Chain of recombinant human D5 receptors (P21918 whole entry): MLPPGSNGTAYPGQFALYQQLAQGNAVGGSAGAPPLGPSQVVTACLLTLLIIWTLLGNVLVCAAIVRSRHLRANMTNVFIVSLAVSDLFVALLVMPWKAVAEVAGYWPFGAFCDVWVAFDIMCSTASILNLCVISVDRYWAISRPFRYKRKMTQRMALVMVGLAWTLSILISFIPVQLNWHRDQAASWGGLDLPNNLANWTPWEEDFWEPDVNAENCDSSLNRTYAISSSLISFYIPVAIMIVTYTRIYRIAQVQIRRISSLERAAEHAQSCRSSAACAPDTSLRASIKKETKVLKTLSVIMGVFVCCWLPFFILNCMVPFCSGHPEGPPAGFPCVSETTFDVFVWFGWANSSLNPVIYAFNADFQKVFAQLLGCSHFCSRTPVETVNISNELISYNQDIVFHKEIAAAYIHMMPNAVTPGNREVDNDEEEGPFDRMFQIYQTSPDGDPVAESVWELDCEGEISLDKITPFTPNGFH
Chain of recombinant human D2 receptors (P14416 whole entry): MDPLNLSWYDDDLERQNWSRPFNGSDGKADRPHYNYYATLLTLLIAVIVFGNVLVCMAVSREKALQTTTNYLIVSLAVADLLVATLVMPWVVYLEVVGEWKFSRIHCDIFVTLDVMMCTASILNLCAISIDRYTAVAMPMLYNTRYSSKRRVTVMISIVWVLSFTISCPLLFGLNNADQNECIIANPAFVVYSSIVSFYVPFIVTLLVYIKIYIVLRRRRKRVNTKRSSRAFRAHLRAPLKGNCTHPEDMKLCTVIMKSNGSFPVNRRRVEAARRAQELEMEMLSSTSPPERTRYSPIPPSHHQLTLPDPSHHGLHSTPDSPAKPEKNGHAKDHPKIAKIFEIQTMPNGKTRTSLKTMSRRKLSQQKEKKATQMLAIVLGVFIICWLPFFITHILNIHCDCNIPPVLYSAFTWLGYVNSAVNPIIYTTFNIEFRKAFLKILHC
Chain of recombinant human D1 receptors (P21728 whole entry): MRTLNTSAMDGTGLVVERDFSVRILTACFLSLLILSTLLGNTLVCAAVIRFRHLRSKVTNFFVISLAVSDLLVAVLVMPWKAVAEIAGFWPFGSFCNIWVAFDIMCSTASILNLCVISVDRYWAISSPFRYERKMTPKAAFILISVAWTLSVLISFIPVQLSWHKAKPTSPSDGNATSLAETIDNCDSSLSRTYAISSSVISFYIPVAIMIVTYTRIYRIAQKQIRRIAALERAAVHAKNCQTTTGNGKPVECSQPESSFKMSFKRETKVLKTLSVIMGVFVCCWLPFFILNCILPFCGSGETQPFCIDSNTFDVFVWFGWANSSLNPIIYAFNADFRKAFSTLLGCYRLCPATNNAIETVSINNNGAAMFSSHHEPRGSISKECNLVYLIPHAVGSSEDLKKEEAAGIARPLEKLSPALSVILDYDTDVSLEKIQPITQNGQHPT

With `Br.CCCN(CCC)C1CCc2ccc(O)cc2C1` (racemic) [7-OH-DPAT, (±)-7-Hydroxy-2-dipropylaminotetralin HBr] the EC50 [1] was 45.2 nM, the “Sessions to Criteria (SEM), criterion ≥ 15 Injections per Session” value (“Sessions to Criteria (SEM) … per Session” for short) [2, 17] was 15.5 (1.5) sessions and the “% Met, Both Criteria Met” value ([2]; 0.32 mg/kg per injection IV) was 0%. The “% Met, criterion ≥ 15 Injections per Session” value (shortened to “% Met … per Session”) ([2]; 0.32 mg/kg per injection IV) was 28%, the “doses maintaining FR5 responding significantly greater than saline” value ([3]; FR5, i.v.) was 0.1 mg/kg/inj and the “Total Injections” value ([4]; PR) was 17.2 (5.4). The “Total Responses” value ([4]; PR) was 690.5 (303.7), the “substitution for the discriminative stimulus effects of cocaine” value [5] was “only partially substituted for cocaine” and the maximum cocaine-appropriate responding [5] was 59% and ~ 60%. The “effect on locomotor activity” value [6] was “stimulated locomotor activity” and the Ki [7] was 110 nM.
With `COC(=O)[C@H]1[C@@H](OC(=O)c2ccccc2)C[C@@H]2CC[C@H]1N2C` [Cocaine, Cocaine HCl] the “Sessions to Criteria (SEM), Both Criteria Met” value [2, 17] was 11.0 (2.3) sessions, the “Sessions to Criteria (SEM) … per Session” value [2, 17] was 11.8 (2.4) sessions and the “Sessions to Criteria (SEM), criterion ≥ 70% Active Lever Selection” value [2, 17] was 10.4 (2.1) sessions. The “% Met, Both Criteria Met” value ([2]; 0.32 mg/kg per injection IV) was 71%, the “% Met … per Session” value ([2]; 0.32 mg/kg per injection IV) was 86% and the “% Met, criterion ≥ 70% Active Lever Selection” value ([2]; 0.32 mg/kg per injection IV) was 71%. For the same compound, the “FR5 responding when substituted for cocaine, relative to saline” value [3] was “maintained dose-dependent levels of responding”, the “doses maintaining significantly more PR responding than saline” value ([4]; PR, i.v.) was at least 0.1 mg/kg/inj and the “Final Ratio Achieved” value ([4]; PR) was 172.0 (40.4) ^***. For the same compound, the “Total Injections” value ([4]; PR) was 31.0 (3.4) ^***, the “Total Responses” value ([4]; PR) was 1895.0 (687.3) ^** and the “PR responding when substituted for cocaine, relative to saline” value [4] was “monotonic increases in responding”.
With `CCCN1C[C@@H](c2ccc(N)nc2)OC[C@@H]1C` [PF-592,379, 5-[(2R,5S)-5-methyl-4-propylmorpholin-2-yl]pyridin-2-amine] the “functional selectivity for D3 over D2 receptors” value [8] was “at least 470 fold”, the “Sessions to Criteria (SEM) … per Session” value [2, 17] was 3 (n.a.) sessions and the “% Met, Both Criteria Met” value ([2]; 0.32 mg/kg per injection IV) was 0%. The “% Met … per Session” value ([2]; 0.32 mg/kg per injection IV) was 14%, the “% Met, criterion ≥ 70% Active Lever Selection” value ([2]; 0.32 mg/kg per injection IV) was 0% and the “drug earned during the first few acquisition sessions” value ([2]; 0.32 mg/kg/inj, FR1) was “approximately 3 mg/kg”. The “injections per session by the end of the acquisition period” value ([2]; 0.32 mg/kg/inj, FR1) was under 5 injections per session, the “injections per session when substituted for cocaine” value ([3]; FR5 or PR schedule, doses as large as 1.0 mg/kg) was under 5 injections per session and the “FR5 responding when substituted for cocaine, relative to saline” value [3] was “no different than saline”. For the same compound, the “Final Ratio Achieved” value ([4]; PR) was 8.9 (2.1), the “Total Injections” value ([4]; PR) was 1.3 (0.5) and the “Total Responses” value ([4]; PR) was 18.5 (11.7). For the same compound, the “PR responding when substituted for cocaine, relative to saline” value [4] was “Low, saline-like levels of responding”, the “responding at the largest doses tested, relative to baseline” value [5] was ~ 15 % of baseline and the “substitution for the discriminative stimulus effects of cocaine” value [5] was “nearly exclusive responding on the saline-appropriate lever”. For the same compound, the maximum cocaine-appropriate responding [5] was 3.5%, the “effect on locomotor activity” value [6] was “only a mild inhibition of locomotor activity” and the “agonist efficacy at the D3 receptor” value [9] was “full agonist”. It also gave an IC50 [10] of at least 10 µM, an IC50 [11] of at least 10 µM and an IC50 [12] of at least 10 µM. For the same compound, the “binding selectivity for D3 over D2, D1, and D5 receptors” value [13] was “at least 46 fold”.
For `CCCN[C@H]1CCc2nc(N)sc2C1` [pramipexole], the “range of doses over which the D3 or D2 receptor is selectively activated in vivo” value [14] is given as at most 30 fold and the “in vitro radioligand binding selectivity for the D3 over D2” value [15] is given as ~ 100 fold.
For `CN[C@@H]1Cc2cccc3[nH]c(=O)n(c23)C1` [sumanirole], the “in vitro radioligand binding selectivity for the D2 over D3 receptor” value [16] is listed as ~ 200 fold and the “range of doses over which the D3 or D2 receptor is selectively activated in vivo” value [14] is listed as at most 30 fold.
